Assays:
[1] = molecular target: T1, recombinant human LTA4 hydrolase (rhLTA4H) (Homo sapiens, UniProt P09960); assay: Recombinant human LTA4 hydrolase assay for LTA4 hydrolase inhibitor activity; type: biochemical; settings: rhLTA4H, LTA4 substrate, LTB4 by immunoassay; single determination or average; read-out: IC50
T1 construct: made in house; host or cells: Spodoptera frugiperda (Sf-9) cells, recombinant baculovirus (pFastBac1)
T1 sequence (P09960 1-611): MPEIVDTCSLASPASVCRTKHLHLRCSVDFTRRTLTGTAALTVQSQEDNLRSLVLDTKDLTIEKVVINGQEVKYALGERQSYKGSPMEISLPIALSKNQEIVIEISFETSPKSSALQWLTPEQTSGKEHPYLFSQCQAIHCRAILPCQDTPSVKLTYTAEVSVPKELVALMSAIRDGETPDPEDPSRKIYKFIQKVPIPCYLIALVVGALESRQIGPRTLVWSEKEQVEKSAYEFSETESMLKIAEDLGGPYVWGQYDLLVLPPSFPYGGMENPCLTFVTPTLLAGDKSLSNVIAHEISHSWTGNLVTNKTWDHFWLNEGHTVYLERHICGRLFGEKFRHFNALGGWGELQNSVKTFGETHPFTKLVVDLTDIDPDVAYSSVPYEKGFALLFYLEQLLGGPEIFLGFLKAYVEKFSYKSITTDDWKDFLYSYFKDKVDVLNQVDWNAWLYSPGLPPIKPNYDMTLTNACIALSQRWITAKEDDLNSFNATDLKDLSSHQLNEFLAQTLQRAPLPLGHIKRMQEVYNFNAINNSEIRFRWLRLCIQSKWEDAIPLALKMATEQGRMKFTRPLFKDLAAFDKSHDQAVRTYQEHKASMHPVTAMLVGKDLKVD
Outline: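 LTB4 formed from LTA4 substrate (free acid from the methyl ester) was quantified by enzyme immunoassay after a 30 min rt reaction. Enzyme was 10 ng Sf-9-expressed human LTA4 hydrolase, pre-incubated 10 min with compound.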

[2] = test system: LTB4 production by calcium ionophore-stimulated murine blood; assay: LTB4 production by calcium ionophore-stimulated murine blood for LTA4H inhibitor activity; type: cell-based, CD-1 mice; settings: Mus musculus; murine blood diluted 1 in 15, calcium ionophore A23187, LTB4 by immunoassay; read-out: IC50
Protocol: Assay 2: LTB4 Production by Calcium Ionophore-Stimulated Murine Blood for LTA4H Inhibitor Activity
CD-1 mice were sacrificed, and blood was collected in heparin-containing syringes by cardiac puncture. […] After the microtiter plate contents were incubated for 15 min at 37° C. in a humidified incubator, calcium ionophore A23187 (Sigma Chemical Co., St. Louis, Mo.) was added to each sample well (final concentration=7 μg/mL). The incubation was continued under the same conditions for an additional 30 min to allow LTB4 formation. The reaction was terminated by centrifugation (833×g, 10 min at 4° C.), and supernatants were analyzed for LTB4 by a commercially available enzyme-linked immunoassay (Cayman Chemical Co.) according to the manufacturer's instructions. Positive controls, under essentially identical conditions but without addition of an inhibitor compound, and negative unstimulated controls, containing all assay components except calcium ionophore, were routinely run in each experiment. […] The values presented here are the result of a single determination or an average of two or more determinations, as indicated in parentheses following each value. For compounds tested three or more times, the average value is followed by the standard deviation

Row | SMILES | IC50 [1] [nM] | IC50 [2] [nM]
1 | c1cnc(OC2CCN(CCOc3ccc(Oc4nc5ncccc5s4)cc3)CC2)nc1 [Example 1, 2-(4-{2-[4-(Pyrimidin-2-yloxy)piperidin-1-yl]ethoxy}phenoxy)[1,3]thiazolo[4,5-b]pyridine] | 1 | 150
2 | c1ccc(SC2CCN(CCOc3ccc(Oc4nc5ncccc5s4)cc3)CC2)cc1 [Example 3, 2-(4-{2-[4-(Phenylsulfanyl)piperidin-1-yl]ethoxy}phenoxy)[1,3]thiazolo[4,5-b]pyridine] | 70 | 380
3 | c1cncc(OC2CCN(CCOc3ccc(Oc4nc5ncccc5s4)cc3)CC2)c1 [Example 4, 2-(4-{2-[4-(Pyridin-3-yloxy)piperidin-1-yl]ethoxy}phenoxy)[1,3]thiazolo[4,5-b]pyridine] | 9 | 54
4 | OC1(c2ccccn2)CCN(CCOc2ccc(Oc3nc4ncccc4s3)cc2)CC1 [Example 5, 4-Pyridin-2-yl-1-{2-[4-([1,3]thiazolo[4,5-b]pyridin-2-yloxy)phenoxy]ethyl}piperidin-4-ol] | 14 | 140
5 | c1ccc2c(c1)CCN(CCOc1ccc(Oc3nc4ncccc4s3)cc1)C2 [Example 6, 2-{2-[4-([1,3]Thiazolo[4,5-b]pyridin-2-yloxy)phenoxy]ethyl}-1,2,3,4-tetrahydroisoquinoline] | 9 | 64
6 | c1cnc2nc(Oc3ccc(OCCN4CCCC4)cc3)sc2c1 [Example 9, 2-[4-(2-Pyrrolidin-1-ylethoxy)phenoxy][1,3]thiazolo[4,5-b]pyridine] | 6 | 17
7 | OC1(c2ccccc2)CCN(CCOc2ccc(Oc3nc4nccnc4s3)cc2)CC1 [Example 22, 4-Phenyl-1-{2-[4-([1,3]thiazolo[4,5-b]pyrazin-2-yloxy)phenoxy]ethyl}piperidin-4-ol] | 62 | 200
8 | OC1(c2cccc(C(F)(F)F)c2)CCN(CCOc2ccc(Oc3nc4nccnc4s3)cc2)CC1 [Example 24, 1-{2-[4-([1,3]Thiazolo[4,5-b]pyrazin-2-yloxy)phenoxy]ethyl}-4-[3-(trifluoromethyl)phenyl]piperidin-4-ol] | 52 | 750
9 | OC1(c2ccc(Cl)cc2)CCN(CCOc2ccc(Oc3nc4ncccc4s3)cc2)CC1 [Example 30, 4-(4-Chlorophenyl)-1-{2-[4-([1,3]thiazolo[4,5-b]pyridin-2-yloxy)phenoxy]ethyl}piperidin-4-ol] | 30 | 150
10 | OC1(c2cccc(C(F)(F)F)c2)CCN(CCOc2ccc(Oc3nc4ncccc4s3)cc2)CC1 [Example 33, 1-{2-[4-([1,3]Thiazolo[4,5-b]pyridin-2-yloxy)phenoxy]ethyl}-4-[3-(trifluoromethyl)phenyl]piperidin-4-ol] | 17 | 480
11 | OC1(c2ccccc2)CCN(CCOc2ccc(Oc3nc4cccnc4s3)cc2)CC1 [Example 40, 4-Phenyl-1-{2-[4-([1,3]thiazolo[5,4-b]pyridin-2-yloxy)phenoxy]ethyl}piperidin-4-ol] | 99 | 950
12 | OC1(c2ccc(Cl)cc2)CCN(CCc2ccc(Oc3nc4ncccc4s3)cc2)CC1 [Example 47, 4-(4-Chlorophenyl)-1-{2-[4-([1,3]thiazolo[4,5-b]pyridin-2-yloxy)phenyl]ethyl}piperidin-4-ol] | 34 | 210
13 | NC(=O)N[C@@H]1C[C@H]2CC[C@@H](C1)N2CCc1ccc(Oc2nc3ncccc3s2)cc1 [Example 50, meso-1-[(3-exo)-8-{2-[4-([1,3]Thiazolo[4,5-b]pyridin-2-yloxy)phenyl]ethyl}-8-azabicyclo[3.2.1]oct-3-yl]urea] | 2 | 2300
14 | CC(=O)N1C[C@H]2CC[C@@H](C1)N2CCc1ccc(Oc2nc3cccnc3s2)cc1 [Example 53, meso-2-(4-{2-[3-Acetyl-3,8-diazabicyclo[3.2.1]oct-8-yl]ethyl}phenoxy)[1,3]thiazolo[5,4-b]pyridine] | 58 | 2500

Now from value to compound:

Row | IC50 [1] [nM] | IC50 [2] [nM] | SMILES
15 | 98 | 190 | c1cnc2nc(Oc3ccc(OCCN4CCOCC4)cc3)sc2c1 [Example 11, 2-[4-(2-Morpholin-4-ylethoxy)phenoxy][1,3]thiazolo[4,5-b]pyridine]
16 | 11 | 160 | c1ccc(OC2CCN(CCOc3ccc(Oc4nc5ncccc5s4)cc3)CC2)nc1 [Example 12, 2-(4-{2-[4-(Pyridin-2-yloxy)piperidin-1-yl]ethoxy}phenoxy)[1,3]thiazolo[4,5-b]pyridine]
17 | 13 | 120 | c1cnc2nc(Oc3ccc(OCCN4CCC(Oc5ccncc5)CC4)cc3)sc2c1 [Example 13, 2-(4-{2-[4-(Pyridin-4-yloxy)piperidin-1-yl]ethoxy}phenoxy)[1,3]thiazolo[4,5-b]pyridine]
18 | 17 | 340 | NC(=O)N1CC2CN(CCOc3ccc(Oc4nc5ncccc5s4)cc3)CC2C1 (centres unmarked) [Example 19, 5-{2-[4-([1,3]Thiazolo[4,5-b]pyridin-2-yloxy)phenoxy]ethyl}hexahydropyrrolo[3,4-c]pyrrole-2(1H)-carboxamide]
19 | 200 | 260 | NC(=O)C1CCN(CCOc2ccc(Oc3nc4nccnc4s3)cc2)CC1 [Example 26, 1-{2-[4-([1,3]Thiazolo[4,5-b]pyrazin-2-yloxy)phenoxy]ethyl}piperidine-4-carboxamide]
20 | 52 | 380 | c1ccc(CC2CCN(CCOc3ccc(Oc4nc5ncccc5s4)cc3)CC2)cc1 [Example 28, 2-{4-[2-(4-Benzylpiperidin-1-yl)ethoxy]phenoxy}[1,3]thiazolo[4,5-b]pyridine]
21 | 13 | 180 | c1cnc2nc(Oc3ccc(OCCN4CCC(c5ccncc5)CC4)cc3)sc2c1 [Example 29, 2-{4-[2-(4-Pyridin-4-ylpiperidin-1-yl)ethoxy]phenoxy}[1,3]thiazolo[4,5-b]pyridine]
22 | 19 | 140 | c1ccc(C2CCN(CCOc3ccc(Oc4nc5ncccc5s4)cc3)CC2)nc1 [Example 34, 2-{4-[2-(4-Pyridin-2-ylpiperidin-1-yl)ethoxy]phenoxy}[1,3]thiazolo[4,5-b]pyridine]
23 | 3 | 51 | CN(CCOc1ccc(Oc2nc3ncccc3s2)cc1)Cc1ccccc1 [Example 36, N-Benzyl-N-methyl-2-[4-([1,3]thiazolo[4,5-b]pyridin-2-yloxy)phenoxy]ethanamine]
24 | 61 | 950 | c1ccc(C2CCN(CCOc3ccc(Oc4nc5cccnc5s4)cc3)CC2)nc1 [Example 38, 2-{4-[2-(4-Pyridin-2-ylpiperidin-1-yl)ethoxy]phenoxy}[1,3]thiazolo[5,4-b]pyridine]
25 | 83 | 580 | c1cnc2sc(Oc3ccc(OCCN4CCC(c5ccncc5)CC4)cc3)nc2c1 [Example 42, 2-{4-[2-(4-Pyridin-4-ylpiperidin-1-yl)ethoxy]phenoxy}[1,3]thiazolo[5,4-b]pyridine]
26 | 15 | 100 | c1ccc(C2CCN(CCc3ccc(Oc4nc5ncccc5s4)cc3)CC2)nc1 [Example 48, 2-{4-[2-(4-Pyridin-2-ylpiperidin-1-yl)ethyl]phenoxy}[1,3]thiazolo[4,5-b]pyridine]
27 | – | 550 | Clc1cnc2nc(Oc3ccc(CN4CCCCC4)cc3)sc2c1 [Example 279, 6-Chloro-2-(4-piperidin-1-ylmethyl-phenoxy)[1,3]thiazolo[4,5-b]pyridine]

Reference: patent US20110190503A1, “Thiazolopyridin-2-yloxy-phenyl and thiazolopyrazin-2-yloxy-phenyl amines as modulators of leukotriene A4 hydrolase” (Janssen Pharmaceutical NV, priority 2008, published 2011)
